According to patent US10456509B2, “Chlorhexidine gluconate compositions, resin systems and articles” (3M INNOVATIVE PROPERTIES COMPANY, priority 2012, dated 2019):
Where a name gives a salt, the structure may show the parent alone. Read-outs that look alike come from different tables or passages of the source.

Experiments:
[1] = Solubility Screening of CHG in vehicles, Vacuum Method
Experimental: Solubility Screening. Screening tests were conducted to determine the solubility of CHG in a wide variety of vehicles. Tests were conducted using the Vacuum Method and the Lyophilizing Method.
Vacuum Method. […] The flask was put in a 60° C. oil bath and stirred with a magnetic stir bar. […] In those cases, after nearly all the water was removed, additional vehicle was added to bring the final weight to 50 grams. The resulting concentration of CHG and residual water were determined. Also, the final state of the solution was qualitatively evaluated to determine if the mixture was transparent and apparently homogenous, or clearly inhomogeneous.

[2] = Solubility of lyophilized CHG in vehicles, Lyophilization Method; settings: for Apparent solubility 2 minutes / Apparent solubility 2 hours 50° C. / Apparent solubility >24 hours / Apparent solubility after cooling / Apparent solubility immediate: 0.2 wt. % lyophilized CHG; for Apparent solubility 2 minutes: after 2 minutes; for Apparent solubility 2 hours 50° C.: after 2 hours in 50° C. oven; for Apparent solubility >24 hours: after 24 hours; for Apparent solubility after cooling: after cooling to room temperature; for Apparent solubility immediate: observed immediately after mixing
Experimental: The Lyophilization Method. Lyophilized CHG was prepared by freeze-drying the aqueous CHG solution (20 wt. % solution in water, obtained from Xttrium Laboratories Inc., Chicago, Ill.).
For lower viscosity vehicles, a 5 ml sample of the non-aqueous vehicle of interest was measured into a glass vial. For higher viscosity vehicles that were difficult to transfer by volume, a 5 gm sample was weighed into the vial. Next, 0.01 g of lyophilized CHG was added to the vial. The sample was capped and mixed by shaking for 30 seconds. The sample was immediately observed and then observed again after 2 minutes and again after 24 hours. After 24 hours, the sample was placed in a 50° C. oven for 2 hours and then removed and immediately observed. These samples were allowed to cool to room temperature and a final observation was made.
CHG solutions. The solutions containing CHG were either a 20 wt. % aqueous solution of CHG or a 10-20% w/w solution of CHG in a non-aqueous vehicle. The non-aqueous solutions were prepared by freeze drying the aqueous CHG solution to produce lyophilized CHG. Finely divided, lyophilized CHG was then solubilized in a non-aqueous vehicle at room temperature with continuous stirring for eight hours.

[3] = CHG 10 wt. % in vehicle, 23-50° C., Vacuum Method
[4] = CHG 20 wt. % in vehicle, 23-50° C., Vacuum Method
[5] = summary of Tables 1a-3b, Vacuum Method
[6] = CHG 5 wt. % in vehicle, 23-50° C., Vacuum Method

For `OCCCCC(O)CO` (stereo not drawn) [1,2,6-trihydroxyhexane], the “Final State” value [1, 3] was “Homogeneous”.
With `CCCCCCC(O)CO` (stereo not drawn) [1,2-octanediol] the “Final State” value [1, 3] was “Homogeneous” and the “Final State” value [1, 4] was “Homogeneous”.
With `CCCC(O)CO` (stereo not drawn) [1,2-pentanediol] the “Final State” value ([1]; CHG 50 wt. % in vehicle, 23-50° C., Vacuum Method) was “Homogeneous”.
With `CC(O)CO` (stereo not drawn) [1,2-propanediol] the “Final State” value [1, 3] was “Homogeneous”.
In the case of `OC1CCCC(O)C1` (stereo not drawn) [1,3-cyclohexanediol], the “Final State” value ([1]; CHG 6 wt. % in vehicle, 23° C., Vacuum Method) is reported as “Inhomogeneous”, the “Final State” value ([1]; CHG 6 wt. % in vehicle, 50° C., Vacuum Method) is reported as “Homogeneous” and the “Final State” value ([1]; CHG 10 wt. % in vehicle, 23° C., Vacuum Method) is reported as “Inhomogeneous”. The “Final State” value ([1]; CHG 10 wt. % in vehicle, 50° C., Vacuum Method) was “Homogeneous”.
In the case of `OCC1(O)COC(O)(CO)CO1` (stereo not drawn) [1,3-dihydroxyacetone dimer], the “Final State” value [1, 3] is reported as “Homogeneous”.
For `OCCCCO` [1,4-butanediol], the “CHG solubility in vehicle (trend)” value [1] was “provides solubility” and the “Final State” value [1] was “Homogeneous”.
With `OC1CCC(O)CC1` (stereo not drawn) [1,4-cyclohexanediol] the “Final State” value [1, 3] was “Inhomogeneous” and the “CHG solubility in vehicle (trend)” value [1, 5] was “do not provide good solubility”.
With `OCCCCCO` [1,5-pentanediol] the “CHG solubility in vehicle (trend)” value [1] was “too widely separated to impart good solubility” and the “Final State” value [1] was “Inhomogeneous”.
With `OCCCCCCCCO` [1,8-octanediol] the “Final State” value [1, 3] was “Inhomogeneous” and the “CHG solubility in vehicle (trend)” value [1, 5] was “too widely separated to impart good solubility”.
In the case of `CC(O)C(C)O` (stereo not drawn) [2,3-butanediol], the “Final State” value [1] is reported as “Homogeneous”.
For `CC(C)(O)C(C)(C)O` [2,3-dimethyl-2,3-butanediol], the “CHG solubility in vehicle (trend)” value [1] was “do not always impart solubility” and the “Final State” value [1] was “Inhomogeneous”.
With `CC(O)CCC(C)O` (stereo not drawn) [2,5-hexanediol] the “Final State” value [1, 3] was “Inhomogeneous” and the “CHG solubility in vehicle (trend)” value [1, 5] was “do not provide good solubility”.
For `CC(C)(O)CCO` [3-methyl-1,3-butanediol], the “Final State” value ([1]; CHG 1 wt. % in vehicle, 23° C., Vacuum Method) was “Inhomogeneous”, the “Final State” value ([1]; CHG 1 wt. % in vehicle, 50° C., Vacuum Method) was “Homogeneous” and the “Final State” value ([1]; CHG 2.5 wt. % in vehicle, 23° C., Vacuum Method) was “Inhomogeneous”. The “Final State” value ([1]; CHG 2.5 wt. % in vehicle, 50° C., Vacuum Method) was “Homogeneous”, the “Final State” value [1, 6] was “Inhomogeneous” and the “Final State” value [1, 3] was “Inhomogeneous”.
With `CCOC(=O)CC(CC(=O)OCC)(OC(C)=O)C(=O)OCC` [Acetyltriethyl citrate] the “Apparent solubility 2 minutes” value [2] was “no”, the “Apparent solubility 2 hours 50° C.” value [2] was “soluble” and the “Apparent solubility >24 hours” value [2] was “partial”. The “Apparent solubility after cooling” value [2] was “partial” and the Apparent solubility immediate [2] was “no”.
For `CCCCOC(=O)[C@H](O)[C@@H](O)C(=O)OCCCC` [Dibutyl-L-Tartrate], the “Final State” value [1] was “Homogeneous”.
In the case of `CCOC(=O)[C@@H](O)[C@H](O)C(=O)OCC` [Diethyl-D-Tartrate], the “Final State” value [1, 3] is reported as “Homogeneous”.
With `CCOC(=O)[C@H](O)[C@@H](O)C(=O)OCC` [Diethyl-L-Tartrate] the “Final State” value [1] was “Homogeneous”.
With `COCCOCCOC` [Diethyleneglycol Dimethyl Ether] the “Final State” value [1] was “Inhomogeneous”.
In the case of `CCCCOCCOCCO` [Diethyleneglycol Monobutyl Ether], the “Final State” value [1] is reported as “Inhomogeneous”.
With `CCOCCOCCO` [Diethyleneglycol monoethyl ether] the “Final State” value ([1]; CHG 2.5 wt. % in vehicle, 23-50° C., Vacuum Method) was “Homogeneous”, the “Final State” value [1, 6] was “Inhomogeneous” and the “Final State” value [1, 3] was “Inhomogeneous”.
In the case of `COCCOCCO` [Diethyleneglycol monomethyl ether], the “Final State” value [1, 3] is reported as “Homogeneous”.
In the case of `CC(C)OC(=O)[C@@H](O)[C@H](O)C(=O)OC(C)C` [Diisopropyl-D-Tartrate], the “Final State” value [1] is reported as “Inhomogeneous”.
For `CC(C)OC(=O)[C@H](O)[C@@H](O)C(=O)OC(C)C` [Diisopropyl-L-Tartrate], the “Final State” value [1, 3] was “Inhomogeneous”.
For `CCCCC(CC)COCC(O)CO` (stereo not drawn) [Ethylhexyl glycerin], the “Final State” value [1] was “Homogeneous”.
For `CCCCCCCCO` [Example 1-octanol, 1-octanol], the “Final State” value [1, 3] was “Inhomogeneous”.
With `CC(C)CCCCCCCCCCCCCCC(=O)OCC(O)CO` (stereo not drawn) [GMIS-1, glycerol monoisostearate] the “solubility of CHG in vehicle (dissolution experiments using lyophilized CHG)” value (shortened to “solubility of CHG in vehicle”) [2] was “limited”.
With `CC(C)CCCCCCCCCCCCCCC(=O)OCC(O)CO` (stereo not drawn) [GMIS-2, glycerol monoisostearate] the “solubility of CHG in vehicle” value [2] was “good solvent for CHG”.
For `OCC(O)CO` [Glycerol], the “Final State” value [1] was “Homogeneous”.
In the case of `CCCCCCCC(=O)OCC(O)CO` (stereo not drawn) [Glyceryl monocaprylate], the “Final State” value [1] is reported as “Homogeneous”.
In the case of `CC(C)CCCCCCCCCCCCCCC(=O)OCC(O)CO` (stereo not drawn) [Glyceryl monoisostearate], the “Final State” value ([1]; CHG 10 wt. % in vehicle, 23-60° C., Vacuum Method) is reported as “Homogeneous”, the “Final State” value ([1]; CHG 16 wt. % in vehicle, 23-60° C., Vacuum Method) is reported as “Homogeneous” and the “Final State” value ([1]; CHG 20 wt. % in vehicle, 60° C., Vacuum Method) is reported as “Homogeneous”.
In the case of `CCCCCCCCCCCC(=O)OCC(O)CO` (stereo not drawn) [Glyceryl monolaurate], the “Final State” value ([1]; CHG 20 wt. % in vehicle, 75° C., Vacuum Method) is reported as “Homogeneous”.
In the case of `CCCCCCCC/C=C\CCCCCCCC(=O)OCC(O)CO` (stereo not drawn) [Glyceryl monooleate], the “Final State” value [1, 4] is reported as “Homogeneous”.
For `CCCCCCCCCCCCCCCCCC(=O)OCC(O)CO` (stereo not drawn) [Glyceryl monostearate], the “Final State” value ([1]; CHG 10 wt. % in vehicle, 80° C., Vacuum Method) was “Homogeneous”.
For `CC(C)CCCCCCCCCCCCCCCOC(=O)CCCCCCCCCCCCCCC(C)C` [Isostearyl isostearate], the “Apparent solubility 2 minutes” value [2] was “no”, the “Apparent solubility 2 hours 50° C.” value [2] was “partial” and the “Apparent solubility >24 hours” value [2] was “no”. The “Apparent solubility after cooling” value [2] was “partial” and the Apparent solubility immediate [2] was “no”.
In the case of `CCOC(=O)C(=O)OCC` [Oxalic Acid Diethyl Ester], the “Final State” value [1] is reported as “Inhomogeneous”.
For `CC(C)CCCCCCCCCCCCCCC(=O)OCC(COC(=O)CCCCCCCCCCCCCCC(C)C)(COC(=O)CCCCCCCCCCCCCCC(C)C)COC(=O)CCCCCCCCCCCCCCC(C)C` [Pentaerythritol tetraisostearate], the “Apparent solubility 2 minutes” value [2] was “partial”, the “Apparent solubility 2 hours 50° C.” value [2] was “partial” and the “Apparent solubility >24 hours” value [2] was “partial”. For the same compound, the “Apparent solubility after cooling” value [2] was “partial” and the Apparent solubility immediate [2] was “partial”.
In the case of `OCCOCCOCCO` [Triethylene glycol], the “Final State” value [1] is reported as “Homogeneous”.
For `CC(O)COC(C)COC(C)CO` (stereo not drawn) [Tripropylene glycol], the “Final State” value [1] was “Inhomogeneous”.
In the case of Decaglyceryl pentaoleate, the “Final State” value [1] is reported as “Inhomogeneous”.
For Decaglyceryl tristearate, the “Final State” value [1] was “Homogeneous”.
In the case of Diisostearyl dimerate, the “Apparent solubility 2 minutes” value [2] is reported as “no”, the “Apparent solubility 2 hours 50° C.” value [2] is reported as “soluble” and the “Apparent solubility >24 hours” value [2] is reported as “no”. The “Apparent solubility after cooling” value [2] was “no” and the Apparent solubility immediate [2] was “no”.
For Dimer Diol, the “Final State” value [1] was “Inhomogeneous”.
With Glycereth-18 Ethylhexanoate the “Apparent solubility 2 minutes” value [2] was “no”, the “Apparent solubility 2 hours 50° C.” value [2] was “soluble” and the “Apparent solubility >24 hours” value [2] was “soluble”. The “Apparent solubility after cooling” value [2] was “soluble” and the Apparent solubility immediate [2] was “no”.
In the case of Isolaureth-10, the “Apparent solubility 2 minutes” value [2] is reported as “no”, the “Apparent solubility 2 hours 50° C.” value [2] is reported as “soluble” and the “Apparent solubility >24 hours” value [2] is reported as “partial”. For the same compound, the “Apparent solubility after cooling” value [2] was “soluble”, the Apparent solubility immediate [2] was “no” and the “Final State” value [1] was “Inhomogeneous”.
In the case of Octyldodeceth-10, the “Apparent solubility 2 minutes” value [2] is reported as “partial”, the “Apparent solubility 2 hours 50° C.” value [2] is reported as “partial” and the “Apparent solubility >24 hours” value [2] is reported as “partial”. The “Apparent solubility after cooling” value [2] was “partial” and the Apparent solubility immediate [2] was “no”.
With Oleth-2 the “Apparent solubility 2 minutes” value [2] was “no”, the “Apparent solubility 2 hours 50° C.” value [2] was “partial” and the “Apparent solubility >24 hours” value [2] was “no”. For the same compound, the “Apparent solubility after cooling” value [2] was “partial” and the Apparent solubility immediate [2] was “no”.
In the case of PEG-20 glyceryl Triisostearate, the “Apparent solubility 2 minutes” value [2] is reported as “partial”, the “Apparent solubility 2 hours 50° C.” value [2] is reported as “partial” and the “Apparent solubility >24 hours” value [2] is reported as “partial”. For the same compound, the “Apparent solubility after cooling” value [2] was “partial” and the Apparent solubility immediate [2] was “no”.
For Polyethyleneglycol Dimethyl Ether, the “Final State” value [1] was “Inhomogeneous”.
For Polyglycerol-2-Triisostearate, the “Final State” value [1] was “Inhomogeneous”.
In the case of Polyglycerol-3 Diisostearate, the “Apparent solubility 2 minutes” value [2] is reported as “no”, the “Apparent solubility 2 hours 50° C.” value [2] is reported as “soluble” and the “Apparent solubility >24 hours” value [2] is reported as “soluble”. The “Apparent solubility after cooling” value [2] was “partial” and the Apparent solubility immediate [2] was “no”.
In the case of Sorbeth-6, the “Final State” value [1] is reported as “Homogeneous”.
For Triglyceryl diisostearate, the “Final State” value [1] was “Inhomogeneous”.
With sorbitan trioleate the “solubility of CHG in vehicle” value [2] was “limited”.
